# According to patent publication EP0107988A2, “Imidazo (1,2-a)quinolines, their salts, their preparation, their use as medicaments and compositions containing them” (ROUSSEL-UCLAF, priority 1982, dated 1984):
# Target: récepteurs des benzodiazépines
# Assay: Benzodiazepine receptor affinity: [3H]flunitrazepam binding, modified method of Squires and Braestrup
# Parameters: species or system rats
# Conditions: concentration inhibiting by 50 % the specific binding of 0,6 nanomoles (3H) flunitrazépam; rat forebrain membrane preparations; read-out: CI50 (the source's name)
# From the text: L'affinité des composés pour les récepteurs des benzodiazépines a été évaluée en utilisant un radioligand/^3H/flunitra- zépam et la méthode de Squires et Braestrup (Nature, 1977, 266,732) modifiée.
# Les valeurs ci-dessus sont les concentrations nanomolaires du produit testé qui inhibent dans une proportion de 50 % la liaison spécifique de 0,6 nanomoles (^3H) flunitrazépam tant de préparations de membranes de cerveaux antérieurs de rats (CI50) nanomoles.
row,Compound,IC50 [µM]
1,CCc1ccc2c(c1)c(OC)cc1nc(C(OC(C)=O)c3ccccc3)cn12 (stereo not shown) [Exemple 1],5
2,"CCc1ccc2c(c1)c(OC)cc1nc(C(=O)c3ccccc3)c(Br)n12 [Exemple 2, (1-bromo 7-éthyl 5-méthoxyimidazo/1,2-a/quinoléin-2-yl)phénylméthanone]",3.2
3,"CCc1ccc2c(c1)c(OC)cc1nc(C(=O)c3ccccc3)c(Cl)n12 [Exemple 3, (1-chloro 7-éthyl 5-méthoxyimidazo/1,2-a/quinoléin-2-yl)phénylméthanone]",0.975
4,"CCc1ccc2c(c1)c(O)cc1nc(C(=O)c3ccccc3)cn12 [Exemple 4, 2-benzoyl 7-éthylimidazo/1,2-a/quinoléin-501]",0.43
5,"CCc1ccc2c(c1)c(OC)cc1nc(C(C)(O)c3ccccc3)cn12 (stereo not shown) [Exemple 5, 1-(7-éthyl 5-méthoxyimidazo/1,2-a/quinoléin-2-yl) 1-phényléthanol]",8
6,"CCc1ccc2c(c1)c(OC(C)=O)cc1nc(C(=O)c3ccccc3)cn12 [Exemple 6, Acétatede 2-benzoyl 7-éthylimidazo/1,2-a/quinoléin-2-vle]",0.395
7,"C=C(c1ccccc1)c1cn2c(cc(OC)c3cc(CC)ccc32)n1 [Exemple 7, Chlorhydratede 7-éthyl 5-méthoxy 2-(1-phénylvinyl) imidazo/1,2-a/quinoléine]",0.12
8,"CCc1ccc2c(c1)c(OC)c(C)c1nc(C(=O)c3ccccc3)cn12 [Exemple 8, (7-éthyl 5-méthoxy 4-méthylimidazo/1,2-a/quinoléin-2-yl)phénylméthanone]",0.007
9,CCc1ccc2c(c1)c(C)cc1nc(C(=O)c3ccccc3)cn12 [Exemple 9],0.25
10,"CCc1ccc2c(c1)c(OC)c(CC)c1nc(C(=O)c3ccccc3)cn12 [Exemple 10, (4,7-diéthyl 5-méthoxyimidazo/1,2-a/quinoléin-2-yl) phénylméthanone]",0.135
